# Test results: patent publication US8609719B2, “Propargylated aminoindans, processes for preparation, and uses thereof” (priority 2006, dated 2013)
# Counter-ions that a name gives are not always drawn. Like-named read-outs stand apart in the source and are kept apart here.
# Key:
# MAO-A = molecular target: T1, MAO-A (Rattus norvegicus, UniProt P21396); assay: MAO-A inhibition in rat organs after chronic P.O. administration; type: in vivo; conditions: po, 7 days, 2 hours after last dose; for inhibition at 37.5 µmol/kg: 37.5 μmol/kg P.O. daily; for inhibition at 75 µmol/kg: 75 μmol/kg P.O. daily; for inhibition at 150 µmol/kg: 150 μmol/kg P.O. daily
# T1 construct: from tissue; host or cells: brain, liver and intestine (duodenum) of dosed rats
# T1 sequence (P21396 1-526): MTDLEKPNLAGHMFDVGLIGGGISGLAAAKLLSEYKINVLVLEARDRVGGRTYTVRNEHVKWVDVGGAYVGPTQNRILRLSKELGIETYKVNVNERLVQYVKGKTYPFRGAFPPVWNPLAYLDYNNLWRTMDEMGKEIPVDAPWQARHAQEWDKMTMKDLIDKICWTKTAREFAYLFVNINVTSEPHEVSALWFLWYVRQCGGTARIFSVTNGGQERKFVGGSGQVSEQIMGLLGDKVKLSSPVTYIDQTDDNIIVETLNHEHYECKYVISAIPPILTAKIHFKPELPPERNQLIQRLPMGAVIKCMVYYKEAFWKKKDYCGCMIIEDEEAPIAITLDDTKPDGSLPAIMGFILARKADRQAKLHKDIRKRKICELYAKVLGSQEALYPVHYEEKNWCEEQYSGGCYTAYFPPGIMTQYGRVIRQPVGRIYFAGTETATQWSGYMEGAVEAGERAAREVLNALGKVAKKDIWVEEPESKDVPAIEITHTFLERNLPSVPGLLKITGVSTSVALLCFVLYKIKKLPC
# Experimental: (§1) 30 rats were separated randomly into 5 testing groups of 6 rats each. Group 1 was the control group to which no drug was administered. Ethyl-hydroxymethyl-carbamic acid 3-R-(prop-2-ynylamino)-indan-5-yl ester fumarate (2:1) was administered to groups 2, 3, 4 in dosages of 150, 75, and 37.5 μmol/kg respectively, daily, perorally (“P.O.”) for seven consecutive days. Water was used as a vehicle.
# (§2) Rats were sacrificed, out of sight of the other rats, 2 hours after the last administration. Brains were removed into Petri dishes on ice, the cerebellums were […], and the brains cut into halves for analysis. Livers and intestines were removed for MAO determination. Organs were homogenated for enzyme inhibition analysis.
# (§3) The MAO inhibition after administration of ethyl-hydroxymethyl-carbamic acid 3-R-(prop-2-ynylamino)-indan-5-yl ester fumarate (2:1) in various organs is listed in Table 4 calculated in percent relative to the control group.
# MAO-B = molecular target: T2, MAO-B (Rattus norvegicus, UniProt P19643); assay: MAO-B inhibition in rat organs after chronic P.O. administration; type: in vivo; conditions: po, 7 days, 2 hours after last dose; for inhibition at 37.5 µmol/kg: 37.5 μmol/kg P.O. daily; for inhibition at 75 µmol/kg: 75 μmol/kg P.O. daily; for inhibition at 150 µmol/kg: 150 μmol/kg P.O. daily
# T2 construct: from tissue; host or cells: brain, liver and intestine (duodenum) of dosed rats
# T2 sequence (P19643 1-520): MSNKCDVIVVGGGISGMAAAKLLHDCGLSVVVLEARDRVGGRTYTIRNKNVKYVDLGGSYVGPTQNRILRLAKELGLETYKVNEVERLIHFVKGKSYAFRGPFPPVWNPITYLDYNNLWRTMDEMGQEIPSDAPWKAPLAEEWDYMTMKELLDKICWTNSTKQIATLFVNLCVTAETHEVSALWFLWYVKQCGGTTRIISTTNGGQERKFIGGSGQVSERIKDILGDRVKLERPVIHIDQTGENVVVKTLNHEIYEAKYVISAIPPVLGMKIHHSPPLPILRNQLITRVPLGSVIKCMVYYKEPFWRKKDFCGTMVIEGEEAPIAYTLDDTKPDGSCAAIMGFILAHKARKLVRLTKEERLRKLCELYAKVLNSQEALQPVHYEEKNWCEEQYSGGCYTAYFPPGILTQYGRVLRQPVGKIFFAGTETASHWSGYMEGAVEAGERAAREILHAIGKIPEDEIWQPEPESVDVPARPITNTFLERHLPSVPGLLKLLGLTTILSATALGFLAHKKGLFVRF
# Experimental: as §1, §2, §3
# [1] = read-out: Brain MAO-A inhibition relative to control
# [2] = read-out: Duodenum MAO-A inhibition relative to control
# [3] = read-out: Liver MAO-A inhibition relative to control
# [4] = read-out: Brain MAO-B inhibition relative to control
# [5] = read-out: Duodenum MAO-B inhibition relative to control
# [6] = read-out: Liver MAO-B inhibition relative to control
compound,measurement,setting,value
"C#CCN[C@@H]1CCc2ccc(OC(=O)N(CC)CO)cc21 [R-HCPAI, Ethyl-hydroxymethyl-carbamic acid 3-R-(prop-2-ynylamino)-indan-5-yl ester fumarate (2:1)]",inhibition at 37.5 µmol/kg,MAO-A; [1],8%
same,inhibition at 37.5 µmol/kg,MAO-A; [2],-25%
same,inhibition at 37.5 µmol/kg,MAO-A; [3],3%
same,inhibition at 75 µmol/kg,MAO-A; [1],41%
same,inhibition at 75 µmol/kg,MAO-A; [2],18%
same,inhibition at 75 µmol/kg,MAO-A; [3],9%
same,inhibition at 150 µmol/kg,MAO-A; [1],72%
same,inhibition at 150 µmol/kg,MAO-A; [2],21%
same,inhibition at 150 µmol/kg,MAO-A; [3],16%
same,inhibition at 37.5 µmol/kg,MAO-B; [4],17%
same,inhibition at 37.5 µmol/kg,MAO-B; [5],7%
same,inhibition at 37.5 µmol/kg,MAO-B; [6],15%
same,inhibition at 75 µmol/kg,MAO-B; [4],62%
same,inhibition at 75 µmol/kg,MAO-B; [5],31%
same,inhibition at 75 µmol/kg,MAO-B; [6],18%
same,inhibition at 150 µmol/kg,MAO-B; [4],83%
same,inhibition at 150 µmol/kg,MAO-B; [5],35%
same,inhibition at 150 µmol/kg,MAO-B; [6],34%
